Results as given in ChEMBL document CHEMBL3751833, “Discovery of potent aryl-substituted 3-[(3-methylpyridine-2-carbonyl) amino]-2,4-dimethyl-benzoic acid EP4 antagonists with improved pharmacokinetic profile” (Bioorg Med Chem Lett, 2016).
≈ marks a conversion by molar mass, not a printed value. Calls of active or inactive are those of the source. The rule behind the calls is not given here.

How the values were obtained:
[1] = Clearance in rat at 1 mg/kg, iv; format: ADME, organism-based; settings: in vivo
[2] = (§1) AUC in rat at 5 mg/kg, po; format: ADME, organism-based; settings: in vivo
[3] = (§2) Oral bioavailability in rat at 5 mg/kg; format: ADME, organism-based; settings: in vivo
[4] = target: T1, Prostaglandin E2 receptor EP4 subtype (Homo sapiens, UniProt P35408); assay: Antagonist activity at human EP4 receptor expressed in HEK293 cells assessed as inhibition of PGE2-stimulated cAMP production after 1 hr by HTRF assay; format: functional, cell-based
[5] = target: T1, Prostaglandin E2 receptor EP4 subtype; assay: Antagonist activity at EP4 receptor in LPS-stimulated human whole blood assessed as inhibition of PGE2-induced TNF-alpha release pretreated for 30 mins followed by addition of PGE2 measured after 20 to 24 hrs by immunoassay; format: tissue-based
[6] = Aqueous solubility of compound at pH 6 after 20 hrs by HPLC analysis; format: physicochemical
Rattus norvegicus [7] = assay: Analgesic activity in […]-induced rat joint pain model assessed as inhibition of differential weight bearing at 5 mg/kg, po measured 30 mins post dose; format: functional, organism-based
Rattus norvegicus [8] = assay: Antiinflammatory activity in adjuvant-induced arthritis rat model assessed as inhibition of paw swelling at 10 mg/kg administered 15 days post adjuvant challenge; format: functional, organism-based
[9] = Oral bioavailability in rat; format: ADME, organism-based; settings: in vivo
Rattus norvegicus [10] = assay: as §1; format: ADME, organism-based; settings: in vivo
Rattus norvegicus [11] = assay: as §2; format: ADME, organism-based; settings: in vivo
[12] = Half life in rat at 5 mg/kg, po; format: ADME, organism-based; settings: in vivo
[13] = target: Prostaglandin E2 receptor EP1 subtype (Homo sapiens, UniProt P34995); assay: Binding affinity to human EP1 receptor
[14] = target: Mu-type opioid receptor (Homo sapiens) (UniProt P35372); assay: Inhibition of human mu opoid receptor at 10 uM
[15] = target: Voltage-gated inwardly rectifying potassium channel KCNH2 (Homo sapiens, UniProt Q12809); assay: Displacement of [3H]astemizole from human ERG upto 100 uM
[16] = Volume of distribution at steady state in rat at 1 mg/kg, iv and 5 mg/kg, po; format: ADME, organism-based; settings: in vivo, read-out: Vdss
[17] = target: Muscarinic acetylcholine receptor M2 (Homo sapiens) (UniProt P08172); assay: Inhibition of human muscarinic M2 receptor at 10 uM
[18] = target: Acetylcholinesterase (Homo sapiens) (UniProt P22303); assay: Inhibition of human acetylcholinesterase at 10 uM
[19] = Cmax in rat at 5 mg/kg, po; format: ADME, organism-based; parameters: dose 5 mg/kg, route oral; settings: in vivo
[20] = target: Beta-2 adrenergic receptor (Homo sapiens) (UniProt P07550); assay: Inhibition of human beta-2 adrenergic receptor at 10 uM
[21] = Half life in dog at 5 mg/kg, po; format: ADME, organism-based, Canis lupus familiaris; settings: in vivo
[22] = target: L-type calcium channel, verapamil binding site (Homo sapiens, UniProt O60840+Q01668+Q13698+Q13936); assay: Inhibition of L-type calcium channel verapamil binding site (unknown origin) at 10 uM; format: protein assay
Cytochrome P450 2B6 = Cytochrome P450 2B6 (Homo sapiens, UniProt P20813); assay: Inhibition of CYP2B6 (unknown origin); format: ADME
[23] = target: L-type calcium channel, dihydropyridine binding site (Homo sapiens, UniProt O60840+Q01668+Q13698+Q13936); assay: Inhibition of L-type calcium channel dihydropyridine binding site (unknown origin) at 10 uM; format: protein assay
[24] = target: Adrenergic receptor alpha-2 (Rattus norvegicus) (UniProt P22086+P19328+P22909); assay: Inhibition of rat alpha-2 adrenergic receptor at 10 uM
Rattus norvegicus [25] = assay: Antiinflammatory activity in adjuvant-induced arthritis rat model assessed as inhibition of paw swelling at 10 and 30 mg/kg administered 15 days post adjuvant challenge; format: functional, organism-based
[26] = Oral bioavailability in dog at 5 mg/kg; format: ADME, organism-based, Canis lupus familiaris; settings: in vivo
[27] = target: Prostaglandin E2 receptor EP2 subtype (Homo sapiens, UniProt P43116); assay: Binding affinity to human EP2 receptor
Cytochrome P450 3A4 = Cytochrome P450 3A4 (Homo sapiens, UniProt P08684); assay: Inhibition of CYP3A4 (unknown origin); format: ADME
[28] = Volume of distribution at steady state in dog at 1 mg/kg, iv and 5 mg/kg, po; format: ADME, organism-based, Canis lupus familiaris; settings: in vivo, read-out: Vdss
[29] = Clearance in dog at 1 mg/kg, iv; format: ADME, organism-based, Canis lupus familiaris; settings: in vivo
[30] = target: Beta-1 adrenergic receptor (Homo sapiens) (UniProt P08588); assay: Inhibition of human beta-1 adrenergic receptor at 10 uM
[31] = target: Adenosine receptor A3 (Homo sapiens) (UniProt P0DMS8); assay: Inhibition of human adenosine A3 receptor at 10 uM
Rattus norvegicus [32] = assay: Analgesic activity in […]-induced po dosed rat joint pain model assessed as inhibition of differential weight bearing measured 30 mins post dose; format: functional, organism-based
[33] = target: D(2) dopamine receptor (Homo sapiens) (UniProt P14416); assay: Inhibition of human dopamine D2s receptor at 10 uM
[34] = target: L-type calcium channel, diltiazem binding site (Homo sapiens, UniProt O60840+Q01668+Q13698+Q13936); assay: Inhibition of L-type calcium channel diltiazem binding site (unknown origin) at 10 uM; format: protein assay
Rattus norvegicus [35] = organism: Rattus norvegicus; assay: Inhibition of rat chloride channel at 10 uM
[36] = target: D(1A) dopamine receptor (Homo sapiens) (UniProt P21728); assay: Inhibition of human dopamine D1 receptor at 10 uM
Cytochrome P450 1A2 = Cytochrome P450 1A2 (Homo sapiens, UniProt P05177); assay: Inhibition of CYP1A2 (unknown origin); format: ADME
[37] = target: Sodium-dependent noradrenaline transporter (Homo sapiens) (UniProt P23975); assay: Inhibition of human Noradrenaline transporter at 10 uM
Cytochrome P450 2D6 = Cytochrome P450 2D6 (Homo sapiens, UniProt P10635); assay: Inhibition of CYP2D6 (unknown origin); format: ADME
Cytochrome P450 2C19 = Cytochrome P450 2C19 (Homo sapiens, UniProt P33261); assay: Inhibition of CYP2C19 (unknown origin); format: ADME
Cytochrome P450 2C8 = Cytochrome P450 2C8 (Homo sapiens, UniProt P10632); assay: Inhibition of CYP2C8 (unknown origin); format: ADME
[38] = target: Prostaglandin E2 receptor EP3 subtype (Homo sapiens, UniProt P43115); assay: Binding affinity to human EP3 receptor
[39] = target: Adrenergic receptor alpha-1 (Rattus norvegicus) (UniProt P15823+P23944+P43140); assay: Inhibition of rat alpha-1 adrenergic receptor at 10 uM
Cytochrome P450 2C9 = Cytochrome P450 2C9 (Homo sapiens, UniProt P11712); assay: Inhibition of CYP2C9 (unknown origin); format: ADME
[40] = Cmax in dog at 5 mg/kg, po; format: ADME, organism-based, Canis lupus familiaris; parameters: dose 5 mg/kg, route oral; settings: in vivo
[41] = AUC in dog at 5 mg/kg, po; format: ADME, organism-based, Canis lupus familiaris; settings: in vivo
[42] = target: Histamine H1 receptor (Homo sapiens) (UniProt P35367); assay: Inhibition of human histamine H1 receptor at 10 uM
Histamine H1 receptor (Homo sapiens), sequence (P35367 whole entry): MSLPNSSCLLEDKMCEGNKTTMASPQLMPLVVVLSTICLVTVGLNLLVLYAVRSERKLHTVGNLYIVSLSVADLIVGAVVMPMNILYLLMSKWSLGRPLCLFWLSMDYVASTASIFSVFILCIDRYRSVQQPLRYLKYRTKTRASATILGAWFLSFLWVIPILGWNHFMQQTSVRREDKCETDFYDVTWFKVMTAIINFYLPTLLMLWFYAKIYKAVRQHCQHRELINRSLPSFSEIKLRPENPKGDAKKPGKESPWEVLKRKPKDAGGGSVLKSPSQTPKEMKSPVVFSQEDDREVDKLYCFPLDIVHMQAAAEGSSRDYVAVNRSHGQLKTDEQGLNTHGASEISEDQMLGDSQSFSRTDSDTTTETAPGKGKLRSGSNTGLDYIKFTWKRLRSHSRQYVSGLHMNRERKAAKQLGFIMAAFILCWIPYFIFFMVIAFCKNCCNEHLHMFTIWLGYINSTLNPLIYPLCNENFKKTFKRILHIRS

T1 sequence (P35408 whole entry): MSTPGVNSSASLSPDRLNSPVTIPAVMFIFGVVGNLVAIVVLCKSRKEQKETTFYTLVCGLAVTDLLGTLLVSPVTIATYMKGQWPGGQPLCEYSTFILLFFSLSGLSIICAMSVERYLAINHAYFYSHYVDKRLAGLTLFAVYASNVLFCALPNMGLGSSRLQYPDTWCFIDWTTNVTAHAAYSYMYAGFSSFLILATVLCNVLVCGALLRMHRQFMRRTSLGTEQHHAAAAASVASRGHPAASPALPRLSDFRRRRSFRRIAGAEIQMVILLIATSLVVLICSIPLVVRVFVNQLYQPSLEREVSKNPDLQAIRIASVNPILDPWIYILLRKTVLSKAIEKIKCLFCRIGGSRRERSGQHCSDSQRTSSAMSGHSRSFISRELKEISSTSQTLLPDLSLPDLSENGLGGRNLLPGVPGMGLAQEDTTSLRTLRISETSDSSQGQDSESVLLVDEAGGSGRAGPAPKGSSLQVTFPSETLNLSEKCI
Prostaglandin E2 receptor EP2 subtype, sequence (P43116 whole entry): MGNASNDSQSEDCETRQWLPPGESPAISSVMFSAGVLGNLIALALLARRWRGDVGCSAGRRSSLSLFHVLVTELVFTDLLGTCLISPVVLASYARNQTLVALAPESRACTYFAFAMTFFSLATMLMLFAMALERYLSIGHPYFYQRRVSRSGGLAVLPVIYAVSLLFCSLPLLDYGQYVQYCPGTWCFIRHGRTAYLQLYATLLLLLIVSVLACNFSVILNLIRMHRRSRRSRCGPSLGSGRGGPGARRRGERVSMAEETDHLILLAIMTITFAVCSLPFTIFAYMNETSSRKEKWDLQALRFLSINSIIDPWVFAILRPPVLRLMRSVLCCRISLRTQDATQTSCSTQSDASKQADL
Prostaglandin E2 receptor EP3 subtype, sequence (P43115 whole entry): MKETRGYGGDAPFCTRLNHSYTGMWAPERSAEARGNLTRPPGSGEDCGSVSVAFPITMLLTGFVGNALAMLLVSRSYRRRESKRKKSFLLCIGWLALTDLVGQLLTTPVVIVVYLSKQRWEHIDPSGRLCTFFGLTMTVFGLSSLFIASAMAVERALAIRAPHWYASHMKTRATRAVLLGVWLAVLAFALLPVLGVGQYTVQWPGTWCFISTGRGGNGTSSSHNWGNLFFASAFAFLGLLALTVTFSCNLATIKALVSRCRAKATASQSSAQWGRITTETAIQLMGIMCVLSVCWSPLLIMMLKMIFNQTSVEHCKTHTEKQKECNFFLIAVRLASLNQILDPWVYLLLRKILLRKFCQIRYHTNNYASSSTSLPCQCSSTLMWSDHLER
Prostaglandin E2 receptor EP1 subtype, sequence (P34995 whole entry): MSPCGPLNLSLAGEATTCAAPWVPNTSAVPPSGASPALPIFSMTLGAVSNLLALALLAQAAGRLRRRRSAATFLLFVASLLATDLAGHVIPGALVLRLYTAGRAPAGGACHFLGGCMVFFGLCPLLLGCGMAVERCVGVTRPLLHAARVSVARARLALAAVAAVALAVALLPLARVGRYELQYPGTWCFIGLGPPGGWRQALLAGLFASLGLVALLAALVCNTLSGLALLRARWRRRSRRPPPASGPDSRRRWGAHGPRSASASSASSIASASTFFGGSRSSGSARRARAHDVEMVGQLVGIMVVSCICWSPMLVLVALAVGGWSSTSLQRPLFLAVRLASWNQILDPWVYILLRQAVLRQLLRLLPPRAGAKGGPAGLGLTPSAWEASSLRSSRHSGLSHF
Beta-1 adrenergic receptor (Homo sapiens), sequence (P08588 whole entry, looked up): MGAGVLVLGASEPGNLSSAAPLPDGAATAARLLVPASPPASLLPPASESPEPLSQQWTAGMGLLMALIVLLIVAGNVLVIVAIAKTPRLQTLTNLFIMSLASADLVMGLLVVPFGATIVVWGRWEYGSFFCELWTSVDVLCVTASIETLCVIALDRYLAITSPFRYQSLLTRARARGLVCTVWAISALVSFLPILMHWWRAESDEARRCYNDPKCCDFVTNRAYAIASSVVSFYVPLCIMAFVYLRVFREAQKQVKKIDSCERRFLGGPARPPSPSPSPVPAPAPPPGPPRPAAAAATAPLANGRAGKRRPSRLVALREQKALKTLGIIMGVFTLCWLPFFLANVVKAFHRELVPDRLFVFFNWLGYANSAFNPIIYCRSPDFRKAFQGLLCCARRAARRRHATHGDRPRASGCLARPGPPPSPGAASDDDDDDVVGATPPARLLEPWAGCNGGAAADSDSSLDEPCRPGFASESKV
Cytochrome P450 3A4, sequence (P08684 whole entry): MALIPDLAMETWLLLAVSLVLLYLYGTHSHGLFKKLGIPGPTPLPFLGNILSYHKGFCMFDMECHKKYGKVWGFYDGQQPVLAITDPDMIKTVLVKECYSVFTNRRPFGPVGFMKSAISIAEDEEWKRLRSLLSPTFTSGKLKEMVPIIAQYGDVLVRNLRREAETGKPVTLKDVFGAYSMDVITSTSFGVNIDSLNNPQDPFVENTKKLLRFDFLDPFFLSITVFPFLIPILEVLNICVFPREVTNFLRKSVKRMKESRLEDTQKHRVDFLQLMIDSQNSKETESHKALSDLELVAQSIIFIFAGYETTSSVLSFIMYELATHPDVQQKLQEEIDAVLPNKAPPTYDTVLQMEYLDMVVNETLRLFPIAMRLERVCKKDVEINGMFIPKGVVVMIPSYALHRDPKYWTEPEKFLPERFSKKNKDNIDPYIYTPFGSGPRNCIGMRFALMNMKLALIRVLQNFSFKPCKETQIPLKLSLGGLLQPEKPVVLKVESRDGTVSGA
Cytochrome P450 2D6, sequence (P10635 whole entry): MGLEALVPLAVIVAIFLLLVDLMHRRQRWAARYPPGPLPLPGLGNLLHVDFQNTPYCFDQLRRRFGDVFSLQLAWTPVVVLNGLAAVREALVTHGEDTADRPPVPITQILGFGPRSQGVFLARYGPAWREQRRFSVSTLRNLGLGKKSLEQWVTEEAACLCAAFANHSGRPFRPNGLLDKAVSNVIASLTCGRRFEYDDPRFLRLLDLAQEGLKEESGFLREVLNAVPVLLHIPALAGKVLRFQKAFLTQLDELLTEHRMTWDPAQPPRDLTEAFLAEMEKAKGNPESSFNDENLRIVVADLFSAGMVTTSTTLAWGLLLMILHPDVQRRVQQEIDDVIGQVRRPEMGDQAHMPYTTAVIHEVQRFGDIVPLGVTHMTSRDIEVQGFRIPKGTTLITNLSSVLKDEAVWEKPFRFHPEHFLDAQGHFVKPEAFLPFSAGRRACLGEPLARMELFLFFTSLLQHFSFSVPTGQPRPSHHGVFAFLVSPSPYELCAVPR
Sodium-dependent noradrenaline transporter (Homo sapiens), sequence (P23975 whole entry): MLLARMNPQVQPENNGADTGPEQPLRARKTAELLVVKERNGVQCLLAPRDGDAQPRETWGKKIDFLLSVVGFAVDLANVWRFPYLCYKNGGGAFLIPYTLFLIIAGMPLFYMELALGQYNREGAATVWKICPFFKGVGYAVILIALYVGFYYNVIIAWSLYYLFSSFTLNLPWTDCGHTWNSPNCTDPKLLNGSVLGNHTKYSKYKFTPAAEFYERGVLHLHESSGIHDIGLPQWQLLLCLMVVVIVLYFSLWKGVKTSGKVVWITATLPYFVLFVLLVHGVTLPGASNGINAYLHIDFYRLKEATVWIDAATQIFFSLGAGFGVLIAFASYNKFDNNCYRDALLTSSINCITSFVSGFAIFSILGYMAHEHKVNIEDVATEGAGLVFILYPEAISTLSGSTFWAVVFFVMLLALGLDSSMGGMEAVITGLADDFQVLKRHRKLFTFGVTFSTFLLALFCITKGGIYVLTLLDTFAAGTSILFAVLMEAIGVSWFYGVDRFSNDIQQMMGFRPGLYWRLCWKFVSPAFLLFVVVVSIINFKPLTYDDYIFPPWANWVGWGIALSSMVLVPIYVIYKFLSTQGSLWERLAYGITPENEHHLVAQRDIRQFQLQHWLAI
Beta-2 adrenergic receptor (Homo sapiens), sequence (P07550 whole entry, looked up): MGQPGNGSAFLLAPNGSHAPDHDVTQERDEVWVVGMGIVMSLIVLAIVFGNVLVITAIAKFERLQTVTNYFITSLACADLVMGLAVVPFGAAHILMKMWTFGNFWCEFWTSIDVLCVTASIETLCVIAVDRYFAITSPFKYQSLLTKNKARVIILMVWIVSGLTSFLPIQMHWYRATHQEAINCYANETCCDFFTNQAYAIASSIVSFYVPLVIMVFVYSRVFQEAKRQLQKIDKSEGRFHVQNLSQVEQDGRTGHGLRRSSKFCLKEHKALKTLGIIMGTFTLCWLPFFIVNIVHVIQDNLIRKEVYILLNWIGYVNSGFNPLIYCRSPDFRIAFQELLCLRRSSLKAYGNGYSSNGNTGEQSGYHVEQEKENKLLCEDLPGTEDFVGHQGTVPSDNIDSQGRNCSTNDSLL
Adenosine receptor A3 (Homo sapiens), sequence (P0DMS8 whole entry): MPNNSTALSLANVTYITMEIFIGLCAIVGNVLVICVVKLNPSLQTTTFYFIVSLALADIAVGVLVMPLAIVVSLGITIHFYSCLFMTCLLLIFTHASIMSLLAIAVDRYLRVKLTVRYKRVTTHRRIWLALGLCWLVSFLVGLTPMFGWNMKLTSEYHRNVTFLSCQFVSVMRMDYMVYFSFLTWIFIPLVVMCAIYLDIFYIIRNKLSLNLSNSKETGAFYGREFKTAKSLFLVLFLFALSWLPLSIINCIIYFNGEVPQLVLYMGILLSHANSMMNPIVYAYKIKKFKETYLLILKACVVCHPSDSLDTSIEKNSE

## Cc1ccc(-c2cccc(CO)c2)cc1C(=O)Nc1c(C)cc(C(=O)O)cc1C
[1]
  clearance: 71 mL/min/kg
[2]
  AUC: 88 ng·h/mL
[3]
  bioavailability: 13%
[4]
  IC50: 0.28 nM
[5]
  IC50: 18.7 nM
[6]
  solubility at 20 h: 31 µg/mL (≈ 79.6 µM)

## Cc1ccc(-c2cccc(CO)c2)cc1C(=O)Nc1c(C)ccc(C(=O)O)c1C
[1]
  clearance: 15 mL/min/kg
[2]
  AUC: 375 ng·h/mL
[3]
  bioavailability: 7%
[5]
  IC50: 59.5 nM
[6]
  solubility at 20 h: 783 µg/mL (≈ 2010 µM)

## O=C(O)Cc1ccccc1Nc1c(Cl)cccc1Cl
Rattus norvegicus [7]
  inhibition: Active
Rattus norvegicus [8]
  inhibition: Active

## Cc1ccc(C(=O)O)c(C)c1NC(=O)c1cc(-c2cccc(CO)c2)cc2ccccc12
[9]
  bioavailability: 6%

## Cc1ccc(C(=O)O)c(C)c1NC(=O)c1cc(-c2cccc(CO)c2)ccc1F
Rattus norvegicus [10]
  AUC: 994 ng·h/mL
Rattus norvegicus [11]
  F: 11%
[4]
  IC50: 4.49 nM
[5]
  IC50: 72.4 nM
[6]
  solubility at 20 h: 709 µg/mL (≈ 1800 µM)

## Cc1ccc(-c2cccc(Cl)c2)nc1C(=O)Nc1c(C)ccc(C(=O)O)c1C
[4]
  IC50: 1.56 nM
[5]
  IC50: 637 nM

## Cc1ccc(-c2cccc(CO)c2)nc1C(=O)Nc1c(C)ccc(C(=O)O)c1C
[12]
  half-life: 2.1 h
[13]
  IC50: > 25000 nM
  Ki: > 17500 nM
[14]
  inhibition: -6%
[15]
  inhibition (INH): Not Active
[16]
  Vd: 0.16 L/kg
[17]
  inhibition: 11%
[18]
  inhibition: -2%
[19]
  Cmax: 1640 ng/mL
[20]
  inhibition: 9%
[21]
  half-life: 1.1 h
[22]
  inhibition at 10 µM: -10%
Cytochrome P450 2B6
  IC50: > 10000 nM
[23]
  inhibition at 10 µM: -46%
[24]
  inhibition: -5%
Rattus norvegicus [25]
  inhibition: Active
[26]
  bioavailability: 48%
[1]
  clearance: 2.2 mL/min/kg
[27]
  IC50: > 25000 nM
  Ki: > 18900 nM
Cytochrome P450 3A4
  IC50: > 10000 nM
[2]
  AUC: 8520 ng·h/mL
[28]
  Vd: 0.97 L/kg
[29]
  clearance: 3.7 mL/min/kg
[30]
  inhibition: 1%
[31]
  inhibition: -7%
Rattus norvegicus [32]
  inhibition: Dose-dependent effect
[33]
  inhibition: -3%
[34]
  inhibition at 10 µM: -7%
Rattus norvegicus [35]
  inhibition: -6%
[36]
  inhibition: 0%
Cytochrome P450 1A2
  IC50: > 10000 nM
[3]
  bioavailability: 22%
[37]
  inhibition: -1%
Cytochrome P450 2D6
  IC50: > 10000 nM
Cytochrome P450 2C19
  IC50: > 10000 nM
Cytochrome P450 2C8
  IC50: > 10000 nM
[38]
  IC50: > 25000 nM
  Ki: > 14000 nM
[39]
  inhibition: -3%
Cytochrome P450 2C9
  IC50: > 10000 nM
[40]
  Cmax: 3820 ng/mL
[41]
  AUC: 10900 ng·h/mL
[42]
  inhibition: 5%
Rattus norvegicus [7]
  inhibition: Active
[5]
  IC50: 38.7 nM
[6]
  solubility at 20 h: 242 µg/mL (≈ 620 µM)

## Cc1ccc(-c2cccc(CO)c2)nc1C(=O)Nc1c(C)cc(C(=O)O)cc1C
[1]
  clearance: 7 mL/min/kg
[2]
  AUC: 4330 ng·h/mL
[3]
  bioavailability: 36%
[4]
  IC50: 0.67 nM
[5]
  IC50: 56.3 nM
[6]
  solubility at 20 h: 14 µg/mL (≈ 35.9 µM)

## Cc1ccc(C(=O)O)c(C)c1NC(=O)c1cc(-c2cccc(Cl)c2)cc2ccccc12
[9]
  bioavailability: 100%

## Cc1ccc(C(=O)O)c(C)c1NC(=O)c1nc(-c2cccc(CO)c2)ccc1C(F)(F)F
[1]
  clearance: 7 mL/min/kg
[2]
  AUC: 1540 ng·h/mL
[3]
  bioavailability: 13%
[4]
  IC50: 1.94 nM
[5]
  IC50: 59 nM
[6]
  solubility at 20 h: 29 µg/mL (≈ 65.3 µM)

## Cc1cc(C(=O)O)cc(C)c1NC(=O)c1cc(-c2cccc(CO)c2)ccc1F
[1]
  clearance: 91 mL/min/kg
[2]
  AUC: 105 ng·h/mL
[3]
  bioavailability: 12%
[4]
  IC50: 0.73 nM
[5]
  IC50: 47.8 nM
[6]
  solubility at 20 h: 774 µg/mL (≈ 1970 µM)

## Cc1cc(C(=O)O)cc(C)c1NC(=O)c1nc(-c2cccc(CO)c2)ccc1C(F)(F)F
[1]
  clearance: 54 mL/min/kg
[2]
  AUC: 243 ng·h/mL
[3]
  bioavailability: 16%
[4]
  IC50: 0.67 nM
[5]
  IC50: 121 nM
[6]
  solubility at 20 h: 23 µg/mL (≈ 51.8 µM)
